{"source": "patent US12162918B2", "about": "“Periostin compounds for the treatment of haematological complications” (Chemotherapeutisches Forschungsinstitut Georg-Speyer-Haus, priority 2018, dated 2024)", "key": {"Actin DsRed+ Lin− cells": {"tested_on": "Actin DsRed+ Lin− cells", "experiment": "Intrafemoral cotransplantation of treated murine stroma cells with untreated Lin− cells", "assay_type": "in vivo, mice", "conditions": "cotransplanted with warfarin- vs vehicle-treated stroma", "method": "For the intrafemoral co-transplantation experiments 0.8×10^5 human CD34+ cells or 1×10^5 Lin− cells from Actin-DsRed reporter mice were mixed with 5×10^5 human or murine stroma cells which had been expanded in vitro and pretreated with vehicle or 2 μM warfarin for 14 days. The human stromal cells had been obtained via flushing of discarded bones from the orthopedic operating room, as approved of by the local ethics committee."}, "wildtype mice": {"tested_on": "wildtype mice", "experiment": "Complete blood count and flow cytometry of peripheral blood and bone marrow of treated mice", "assay_type": "in vivo", "conditions": "for absolute number of monocytes in peripheral blood / absolute number of leukocytes in peripheral blood: 14 days after initiation", "method": "(§1) 0.5 mg/kg/d or 0.05 mg/kg/d of warfarin, resuspended in phosphate-buffered saline was administered to mice via subcutaneously implanted osmotic minipumps (ALZET minipumps, Cupertino, CA). The osmotic minipumps were changed after 14 days (if the experiment went beyond 14 days of treatment). Sham operated (skin incision and suture) mice served as controls. Warfarin treatment continued for 10-14 days. In the xenotransplantation experiments the mice were treated with warfarin via the drinking water (or normal drinking water) at a dose of 0.72 mg/100 ml for a total of 3 days a week (Pfeilschifter et al., 2011).\n5-fluorouracil was intraperitoneally injected every week at a dose of 75 mg/kg for a total of 4 doses or as a one time dose of 200 mg/kg. Recombinant mouse periostin (R&D Systems, Minneapolis, MN, cat. no. 2955-F2), produced in the Sf21 (baculovirus)-derived insect cell line, was administered intravenously at a dose of 2-4 μg per day and vitamin K was given at a dose of 15 mg/kg by oral gavage for four consecutive days.\nWe assessed the complete blood count of vehicle or warfarin-treated mice using a complete blood count analyzer (Scil Vet ABC, Gurnee, IL). Peripheral blood and bone marrow samples were stained with antibodies for flow cytometry, which was performed on a BD LSR Fortessa (BD Biosciences, Heidelberg, Germany). The lineage antibody cocktail contained antibodies to B220, CD5, Ter119, F4/80 and CD11b. Engraftment of human cells in NSG mice was assessed using anti-human CD45 (BD Biosciences, San José, CA)."}, "Lin− cells": {"tested_on": "Lin− cells", "experiment": "Plating of warfarin-exposed Lin− cells on untreated versus warfarin-treated stroma, with or without MK-2206", "assay_type": "cell-based, mice"}, "distal femora": {"tested_on": "distal femora", "experiment": "Bone histomorphometry of distal femora", "assay_type": "in vivo, mice", "excerpt": "The femora were isolated and first fixed in 4% paraformaldehyde at 4C overnight and then in 70% ethanol for an additional 5 days. Fixed bones were dehydrated in graded ethanol, then embedded in methyl methacrylate without demineralization. Undecalcified 5 μm thick longitudinal sections were obtained using a microtome (RM2255, Leica Biosystem, IL, USA). The sections were stained with Goldner Trichrome and at least two consecutive sections per specimen were examined for measurements of cellular parameters. A standard histomorphometric analysis of the femur methaphysis was performed using the Osteomeasure analysis system (Osteometrics Inc, Decatur, GA, USA). Measurements were performed 200 μm below the distal growth plate. The observer was blinded to the experimental group at the time of measurement. The cellular parameters were calculated and expressed according to the standardized nomenclature (Dempster et al., 2013)."}, "periostin": {"tested_on": "periostin", "experiment": "Anti-Gla coimmunoprecipitation of conditioned medium from stroma cells", "assay_type": "cell-based, mice", "conditions": "warfarin-treated stroma cells, anti-gla antibody"}, "[1]": {"tested_on": "bone marrow Lin− and LKS cells", "experiment": "Apoptosis, cell cycle, pAKT and macrophages in bone marrow of warfarin-treated mice", "assay_type": "in vivo", "method": "as §1\nFor cell cycle analysis cells were permeabilized and fixed with the cytoperm/cytofix kit (BD Biosciences, San Jose, CA), followed by staining with an antibody to Ki67-PE (Biolegend, San Diego, CA) overnight at 4 C. Consequently, cells were washed and resuspended in PBS with DAPI (1 ng/ml). For detection of apoptosis cells were first stained for surface markers, washed with Annexin V buffer (Life Technologies, Darmstadt, Germany), stained with Annexin V-PE (Life Technologies, Darmstadt, Germany), washed with Annexin V binding buffer, resuspended in PBS with DAPI and analyzed.\nThe PE-labelled anti-pAKT antibody (Cell signaling, #5315, Danvers, MA) was used for intracellular flow cytometry after fixation and permeabilization of the cells."}, "stroma cells": {"tested_on": "stroma cells", "experiment": "Focused gene expression analysis of stroma cells", "assay_type": "cell-based, mice", "conditions": "warfarin- compared to vehicle-treated stroma cells"}}, "note": "“Also recorded” adds a separate entry of the source.", "data": [{"smiles": "CC(=O)CC(c1ccccc1)c1c(O)c2ccccc2oc1=O", "note": "(stereo not drawn) [warfarin]", "values": [{"measurement": "engraftment of donor-derived myeloid cells", "setting": "Actin DsRed+ Lin− cells; P=0.023", "result": "decreased engraftment"}, {"measurement": "engraftment of total donor bone marrow", "setting": "Actin DsRed+ Lin− cells; P=0.025", "result": "decreased engraftment"}, {"measurement": "absolute count and percentage of LKS, LKS SLAM and myeloid progenitor cells in the bone marrow", "setting": "wildtype mice; 2 and 4 weeks, controls vs warfarin-treated mice", "result": "did not significantly differ"}, {"measurement": "time at which the decrease in leukocytes and monocytes appeared", "setting": "wildtype mice; after initiation of treatment", "result": "as early as three days"}, {"measurement": "absolute number of monocytes in peripheral blood", "setting": "wildtype mice; higher dose (0.5 mg/kg), P=0.007", "result": "reduced"}, {"measurement": "absolute number of leukocytes in peripheral blood", "setting": "wildtype mice; higher dose (0.5 mg/kg), P=0.008", "result": "reduced"}, {"measurement": "absolute number of leukocytes in peripheral blood", "setting": "wildtype mice; lower dose (0.05 mg/kg)", "result": "reduced"}, {"measurement": "absolute number of monocytes in peripheral blood", "setting": "wildtype mice; lower dose (0.05 mg/kg)", "result": "reduced"}, {"measurement": "leukocyte and monocyte counts, oral versus subcutaneous administration", "setting": "wildtype mice; oral versus subcutaneous", "result": "similarly reduced"}, {"measurement": "lethal hemorrhagic complications", "setting": "wildtype mice; subcutaneous versus oral treatment", "result": "fewer lethal hemorrhagic complications"}, {"measurement": "lymphocyte count", "setting": "wildtype mice; warfarin-treated mice", "result": "decreased, albeit to a lesser extent than myeloid cells"}, {"measurement": "percentage of CD11b+ myeloid cells in peripheral blood", "setting": "wildtype mice; warfarin-treated vs control mice, P=0.003", "result": "decreased"}, {"measurement": "number of pAKT+ Lin− cells", "setting": "Lin− cells; previously warfarin-exposed Lin− cells on untreated stroma, P=0.02", "result": "increased"}, {"measurement": "number of hematopoietic cells", "setting": "Lin− cells; warfarin-treated Lin− cells on untreated compared to warfarin-treated stroma, P=0.009", "result": "increased number"}, {"measurement": "percentage of Lin− cells in the S/G2/M phases", "setting": "Lin− cells; warfarin-treated Lin− cells on untreated compared to warfarin-treated stroma, P=0.02", "result": "increase"}, {"measurement": "ratio of bone volume/tissue volume (BV/TV)", "setting": "distal femora; P<0.001", "result": "decreased"}, {"measurement": "number of osteoblasts (N.Ob/B.Pm)", "setting": "distal femora; P=0.0001", "result": "significantly increased"}, {"measurement": "osteoblast surface (Ob.S/BS)", "setting": "distal femora; P=0.0008", "result": "significantly increased"}, {"measurement": "osteoclast surface (Oc.S/BS)", "setting": "distal femora; P=0.01", "result": "significantly increased"}, {"measurement": "osteoid volume (OV/BV)", "setting": "distal femora; P=0.046", "result": "significantly increased"}, {"measurement": "cancellous bone mass", "setting": "distal femora; distal femora, warfarin-treated vs control mice", "result": "dramatic reduction; also recorded: significant reduction"}, {"measurement": "osteoclast differentiation or number (N.Oc/B.Pm)", "setting": "distal femora; mouse, in vivo", "result": "absence of changes"}, {"measurement": "trabecular number and thickness", "setting": "distal femora; mouse, in vivo", "result": "reduced"}, {"measurement": "trabecular separation", "setting": "distal femora; mouse, in vivo", "result": "increased"}, {"measurement": "γ-carboxylated periostin in conditioned medium", "setting": "periostin", "result": "no γ-carboxylated periostin could be detected"}, {"measurement": "annexin V+ DAPI+ dead LKS cells in bone marrow", "setting": "[1]; after 6 weeks, P=0.03", "result": "modest increase"}, {"measurement": "annexin V+ DAPI+ dead Lin− cells in bone marrow", "setting": "[1]; after two weeks, P=0.038", "result": "modest increase"}, {"measurement": "macrophages in the bone marrow of primary mice", "setting": "[1]; warfarin vs controls", "result": "not reduced"}, {"measurement": "percentage of LKS cells in the Go phase of the cell cycle", "setting": "[1]; warfarin vs vehicle, P=0.005", "result": "significantly increased"}, {"measurement": "pAKT+ Lin− cells in the bone marrow", "setting": "[1]; warfarin-treated vs control mice, P=0.04", "result": "significant reduction"}, {"measurement": "expression of C-X-C motif chemokine 12 (CxCl12)", "setting": "stroma cells", "result": "trend towards increased expression"}, {"measurement": "expression of osteopontin, Runx 2, Ccl3, Angpt1, Igf1, Notch1 and Wnt7b", "setting": "stroma cells", "result": "significant decreases"}, {"measurement": "expression of stem cell factor (SCF; Kitl)", "setting": "stroma cells", "result": "unchanged"}]}]}
